Laboratory results: patent US20220256847A1, “CELL DEATH INHIBITOR AND CELL DEATH INHIBITION METHOD” (UNIVERSITY OF TSUKUBA, priority 2019, published 2022)

Assays:
Format in all cases: in vivo
[1] = tested on: PLP-GFP protein expressed in the leaves of Nicotiana benthamiana; assay: PLP-GFP protein expression level, Western blotting with anti-GFP antibody; conditions: Example 1: spray, concentration of 100 mM or higher, once every two days; 18° C., seven days
Protocol: The soluble protein was then extracted from the region where the PLP-GFP protein was expressed in the leaves of each plant. The prepared soluble protein was then subjected to SDS-PAGE and transferred to a PVDF membrane. For comparison, 100 ng, 200 ng, and 300 ng of purified GFP proteins were also subjected to SDS-PAGE and transferred to a PVDF membrane. Then, the PLP-GFP protein was detected by Western blotting with an anti-GFP antibody. FIG. 5A is a photograph showing the results of Western blotting. In FIG. 5A, “NT” indicates the results of the leaves of Nicotiana benthamiana without gene introduction, and “FW” indicates fresh weight. In FIG. 5A, the band indicated by the arrowhead indicates the band of the PLP-GFP protein. In addition, the band near 30 kDa is the band of the GFP protein. FIG. 5B is a graph showing the results of quantifying an expression level of the PLP-GFP protein based on FIG. 5A.

[2] = tested on: Cryj1 protein expressed in the leaves of Nicotiana benthamiana; assay: Cryj1 protein expression, Western blotting with anti-Cryj1 antibody; conditions: Example 8: 200 mM spray once every two days; vacuum infiltration; 24° C. or 20° C., seven days
Protocol: Nicotiana benthamiana was immersed in the agroinfiltration liquid, and vacuum infiltrated by leaving it under a pressure of 736 mmHg for 5 minutes, and then by bringing the pressure back to atmospheric pressure, and thus the Cryj1 protein was expressed. Each plant was cultured at 24° C. or 20° C. for seven days after agroinfiltration. In addition, a 0 mM or 200 mM aqueous solution of sodium ascorbate was sprayed once every two days.
The soluble protein was then extracted from the leaves of each plant seven days after agroinfiltration. The prepared soluble protein was then subjected to SDS-PAGE and transferred to a PVDF membrane. Then, the Cryj1 protein was detected by Western blotting with an anti-Cryj1 antibody.
FIG. 18A is a photograph showing the results of Western blotting. In FIG. 18B, “P” indicates the result of SDS-PAGE and Western blotting of the Cryj1 protein derived from a natural product as a positive control, “M” indicates a molecular weight marker, “WT” indicates the result of the leaves of Nicotiana benthamiana without gene introduction, “24° C.” indicates the result of culturing at 24° C., “20° C.” indicates the result of culturing at 20° C., and “+AsA” indicates the result of spraying a 200 mM aqueous solution of sodium ascorbate once every two days.

[3] = tested on: hFbxw7 protein expressed in the leaves of Nicotiana benthamiana; assay: hFbxw7 protein expression, Western blotting with anti-FLAG antibody; conditions: Example 2: 200 mM spray; 25° C.; three days after agroinfiltration
Source text: The soluble protein was extracted from the region where the hFbxw7 protein was expressed in the leaves of each plant three days after agroinfiltration. The prepared soluble protein was then subjected to SDS-PAGE and transferred to a PVDF membrane. As described above, a FLAG tag was attached to the N-terminus of the hFbxw7 protein. Here, the hFbxw7 protein was detected by Western blotting with an anti-FLAG antibody. FIG. 9 is a photograph showing the results of Western blotting. FIG. 9 also illustrates the results of CBB staining. In FIG. 9, “NT” indicates the results of the leaves of Nicotiana benthamiana without gene introduction, and “FW” indicates fresh weight. In addition, “Mock” indicates the result of not spraying an aqueous solution of sodium ascorbate, and “AsA” indicates the result of spraying a 200 mM aqueous solution of sodium ascorbate. In addition, the band indicated by the arrowhead indicates the band of the hFbxw7 protein. In addition, “RbcL” indicates the Rubisco large subunit.

[4] = tested on: GFP protein expressed in the leaves of Nicotiana benthamiana; assay: GFP protein expression level, SDS-PAGE and CBB staining of soluble leaf protein
Nicotiana benthamiana = assay: Observation of gangrene after adding the substance to the agroinfiltration liquid (vacuum infiltration); conditions: hCu1, 25° C., seven days
Protocol: (§1) Sodium ascorbate was added to the agroinfiltration liquid to examine whether gangrene can be inhibited. Specifically, Nicotiana benthamiana was immersed in the agroinfiltration liquid, and vacuum infiltrated by leaving it under a pressure of 736 mmHg for 5 minutes, and then bringing the pressure back to atmospheric pressure, and thus the hCu1 protein was expressed. Here, sodium ascorbate having a final concentration of 80 mM, 100 mM, or 200 mM was added to the agroinfiltration liquid. Each plant was cultured at 25° C. for seven days after agroinfiltration.
In (a) to (c), “vacuum” indicates the results of vacuum infiltration.
as §1, with “0, 10, 20, 30,” for “80 mM, 100 mM,”, “40” for “200”, “liquid.” for “liquid. Each plant was cultured at 25° C. for seven days after agroinfiltration.”
Sodium ascorbate was administered only once at the time of agroinfiltration. […]

[5] = tested on: hCu1 protein expressed in the leaves of Nicotiana benthamiana; assay: hCu1 protein expression level, Western blotting with anti-FLAG antibody
Source text: (§2) The soluble protein was then extracted from the region where the hCu1 protein was expressed in the leaves of each plant. The prepared soluble protein was then subjected to SDS-PAGE and transferred to a PVDF membrane. As described above, a FLAG tag was attached to the N-terminus of the hCu1 protein. Here, the hCu1 protein was detected by Western blotting with an anti-FLAG antibody.
FIG. 4A is a photograph showing the results of Western blotting. In FIG. 4A, “NT” indicates the results of the leaves of Nicotiana benthamiana without gene introduction, and “FW” indicates fresh weight. In FIG. 4A, the band indicated by the arrowhead indicates the band of the hCu1 protein. FIG. 4B is a graph showing the results of quantifying the expression level of the hCu1 protein based on FIG. 4A. […]
as §2, with “the” for “the region where the hCu1 protein was expressed in the”, “plant seven days after agroinfiltration.” for “plant.”
FIG. 13A is a photograph showing the results of Western blotting, and also illustrates the results of CBB staining. In FIG. 13A, “NT” indicates the results of the leaves of Nicotiana benthamiana without gene introduction, and “FW” indicates fresh weight. In addition, “vacuum” indicates the result of performing the vacuum infiltration, and “spray” indicates the result of spraying an aqueous solution of sodium ascorbate without adding sodium ascorbate to the agroinfiltration liquid. In addition, the band indicated by the arrowhead indicates the band of the hCu1 protein. In addition, “RbcL” indicates the Rubisco large subunit.
FIG. 13B is a graph showing the results of quantifying the expression level of the hCu1 protein based on FIG. 13A. In FIG. 13B, “vacuum” and “spray” indicate the same meaning as those in FIG. 13A.

[6] = tested on: leaves of Nicotiana benthamiana; assay: Observation of gangrene (cell death induced by transient protein expression) in leaves after agroinfiltration and spraying of the substance
Protocol: Nicotiana benthamiana was grown for 5 to 6 weeks under conditions of 25° C. and 16 hours in light and 8 hours in the dark. Each of the above-described vectors was introduced into an Agrobacterium tumefaciens GV3101 strain having a binary vector, and it was cultured at 28° C. until the stationary phase in L broth medium supplemented with 20 μM acetosyringone, 50 mg/L kanamycin, 30 mg/L gentamicin, and 30 mg/L rifampicin at 10 mM MES (pH 5.6).
Then, the culture solution was centrifuged to recover the Agrobacterium tumefaciens, and then suspended such that OD600 was approximately 1 by using an infiltration buffer (10 mM magnesium chloride, 10 mM MES, (pH 5.6), and 100 μM acetosyringone). The Agrobacterium tumefaciens was then left in this liquid for 2 to 3 hours.
After this, the suspension of Agrobacterium tumefaciens was infiltrated on the underside of the leaves of Nicotiana benthamiana by using a 1 mL syringe without a needle. Alternatively, in some cases, Nicotiana benthamiana was immersed in the Agrobacterium suspension (agroinfiltration liquid), and vacuum infiltrated by leaving it under a pressure of 736 mmHg for 5 minutes, and then bringing the pressure back to atmospheric pressure.
In addition, in some experiments, sodium ascorbate was added to the infiltration buffer. Expression induction of heat shock protein was performed by incubating the plant for 1 hour at 37° C. one day and three days after the infiltration. In the following Example, sodium L-ascorbate was used as sodium ascorbate.
Agroinfiltration using a syringe was performed to express GFP, hCu1, hFbxw7, PLP-GFP, and Cryj1 in the leaves of Nicotiana benthamiana. In the expression of PLP-GFP, a 1/100 amount of pBYR2HS-EGFP was simultaneously agroinfitrated. Each plant was cultured at 18° C. for seven days after agroinfiltration. In addition, 0, 30, 50, 100, 200, and 300 mM aqueous solutions of sodium ascorbate were sprayed once every two days.
The scale bar indicates 1 cm. […] In (a) to (f), the region surrounded by the dotted circle is a region expressing GFP, hCu1, hFbxw7, PLP-GFP, and Cryj1, respectively.
Agroinfiltration using a syringe was performed to express each of GFP, hCu1, and hFbxw7 in the leaves of Nicotiana benthamiana. Each plant was cultured at 25° C. for seven days after agroinfiltration. In addition, a 0 or 200 mM aqueous solution of sodium ascorbate was sprayed once every two days. The present Example was mainly different from Example 1 in the growth temperatures of the plant.
The scale bar indicates 1 cm.
Each plant was cultured at 18° C. for seven days after agroinfiltration.
Specifically, Nicotiana benthamiana was immersed in the agroinfiltration liquid, and vacuum infiltrated by leaving it under a pressure of 736 mmHg for 5 minutes, and then bringing the pressure back to atmospheric pressure, and thus the hFbxw7 protein was expressed. Each plant was cultured at 20° C. for seven days after agroinfiltration. In addition, 1 mM of each endoplasmic reticulum stress inhibitor was sprayed one day and three days after agroinfiltration.

[7] = Example 1: spray, concentration of 100 mM or higher, once every two days, 18° C., seven days

| SMILES | expression level of the PLP-GFP protein [1] | expression of Cryj1 protein [2] | expression of the hFbxw7 protein [3] | expression level of the GFP protein [4, 7] | expression level of the Rubisco large subunit [4, 7] | GFP protein expression level ([4]; Example 2: 200 mM spray, 25° C., three, five and seven days after agroinfiltration) | gangrene induced by the substance (Nicotiana benthamiana; Example 3: concentration of 80 mM or higher (80, 100, 200 mM) added to the agroinfiltration liquid) | gangrene of the plant (Nicotiana benthamiana; Example 4: added to the agroinfiltration liquid (0-40 mM), once) | expression level of the hCu1 protein [5, 7] | peak in the expression level of the hCu1 protein ([5]; Example 1: spray, concentration of 200 mM or higher, 18° C., seven days) | expression of the hCu1 protein ([5]; Example 2: 200 mM spray, 25° C., seven days after agroinfiltration) | expression level of the hCu1 protein, time of peak ([5]; Example 2: 200 mM spray, 25° C., three days after agroinfiltration) | expression of the hCu1 protein ([5]; Example 4: final concentration of 40 mM added to the agroinfiltration liquid, once, vacuum infiltration, 25° C., seven days) | gangrene (cell death induced by transient protein expression) ([6]; Example 1: sprayed with 100, 200 and 300 mM aqueous solutions once every two days, 18° C., seven days after agroinfiltration, hCu1, hFbxw7, PLP-GFP, Cryj1 regions) | gangrene ([6]; Example 2: 200 mM spray once every two days, 25° C., seven days after agroinfiltration, GFP, hCu1, hFbxw7) | gangrene in GFP-expressing leaves ([6]; Example 2: 200 mM spray, 25° C., culturing continued for seven days after agroinfiltration) | cell death induced by transient protein expression ([6]; Example 5: spray 30-300 mM once every two days, 18° C., seven days) | state of the leaves ([6]; Example 5: spray, concentration of 100 mM or higher, once every two days, 18° C., seven days) |
| --- | --- | --- | --- | --- | --- | --- | --- | --- | --- | --- | --- | --- | --- | --- | --- | --- | --- | --- |
| O=C1O[C@H]([C@@H](O)CO)C([O-])=C1O.[Na+] [sodium ascorbate, sodium L-ascorbate] | increase in expression level of the PLP-GFP protein | expression of Cryj1 protein was observed | expression of the hFbxw7 protein was observed | increase in expression level of the GFP protein | increase in expression level of the Rubisco large subunit | GFP protein expression level sustenance | gangrene possibly caused by osmotic stress was induced | reduce gangrene of the plant | increase in expression level of the hCu1 protein | peak in the expression level of the hCu1 protein was observed | expression of the hCu1 protein was maintained even seven days after agroinfiltration | peak in the expression level of the hCu1 protein was observed three days after agroinfiltration | expression of the hCu1 protein similar to a case where a 200 mM aqueous solution of sodium ascorbate was sprayed | gangrene was inhibited | tendency of gangrene suppression | tendency of gangrene reduction | – | – |
| O=C([O-])CC(O)(CC(=O)[O-])C(=O)[O-].[Na+].[Na+].[Na+] [sodium citrate, reference compound] | – | – | – | – | – | – | – | – | – | – | – | – | – | – | – | – | cannot inhibit cell death induced by transient protein expression | leaves were in a wilted state |
